# Assay results: ChEMBL document CHEMBL1933054, “Structure-based design of PDK1 inhibitors” (Bioorg Med Chem Lett, 2012)
# Legend:
# [1] = Half life in human liver microsomes; type: ADME, Microsome
# [2] = Oral bioavailability in mouse; type: ADME, organism-based; details: in vivo
# [3] = molecular target: T1, 3-phosphoinositide-dependent protein kinase 1 (Homo sapiens, UniProt O15530); assay: Inhibition of PDK1 using [gamma33P]-ATP as substrate after 30 mins by scintillation counting
# T1 sequence (O15530 whole entry): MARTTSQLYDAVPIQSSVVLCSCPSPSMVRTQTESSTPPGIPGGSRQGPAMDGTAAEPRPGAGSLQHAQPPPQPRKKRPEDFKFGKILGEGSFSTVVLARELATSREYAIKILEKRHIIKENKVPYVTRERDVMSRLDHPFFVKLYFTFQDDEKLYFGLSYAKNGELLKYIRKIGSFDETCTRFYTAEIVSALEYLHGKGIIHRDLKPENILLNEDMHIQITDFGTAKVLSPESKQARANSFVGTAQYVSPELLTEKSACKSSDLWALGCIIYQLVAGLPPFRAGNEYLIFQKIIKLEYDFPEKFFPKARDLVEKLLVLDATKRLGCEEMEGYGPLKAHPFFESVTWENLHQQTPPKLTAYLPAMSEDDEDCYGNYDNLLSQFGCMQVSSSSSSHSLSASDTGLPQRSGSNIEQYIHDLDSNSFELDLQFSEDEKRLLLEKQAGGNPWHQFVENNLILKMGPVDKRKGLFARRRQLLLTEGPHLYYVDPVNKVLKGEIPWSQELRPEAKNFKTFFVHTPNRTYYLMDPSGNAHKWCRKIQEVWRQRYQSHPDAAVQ
# [4] = molecular target: Cyclin-dependent kinase 2 (Homo sapiens, UniProt P24941); assay: Inhibition of CDK2
# [5] = molecular target: T2, Receptor-type tyrosine-protein kinase FLT3 (Homo sapiens, UniProt P36888); assay: Inhibition of Flt3
# T2 sequence (P36888 whole entry): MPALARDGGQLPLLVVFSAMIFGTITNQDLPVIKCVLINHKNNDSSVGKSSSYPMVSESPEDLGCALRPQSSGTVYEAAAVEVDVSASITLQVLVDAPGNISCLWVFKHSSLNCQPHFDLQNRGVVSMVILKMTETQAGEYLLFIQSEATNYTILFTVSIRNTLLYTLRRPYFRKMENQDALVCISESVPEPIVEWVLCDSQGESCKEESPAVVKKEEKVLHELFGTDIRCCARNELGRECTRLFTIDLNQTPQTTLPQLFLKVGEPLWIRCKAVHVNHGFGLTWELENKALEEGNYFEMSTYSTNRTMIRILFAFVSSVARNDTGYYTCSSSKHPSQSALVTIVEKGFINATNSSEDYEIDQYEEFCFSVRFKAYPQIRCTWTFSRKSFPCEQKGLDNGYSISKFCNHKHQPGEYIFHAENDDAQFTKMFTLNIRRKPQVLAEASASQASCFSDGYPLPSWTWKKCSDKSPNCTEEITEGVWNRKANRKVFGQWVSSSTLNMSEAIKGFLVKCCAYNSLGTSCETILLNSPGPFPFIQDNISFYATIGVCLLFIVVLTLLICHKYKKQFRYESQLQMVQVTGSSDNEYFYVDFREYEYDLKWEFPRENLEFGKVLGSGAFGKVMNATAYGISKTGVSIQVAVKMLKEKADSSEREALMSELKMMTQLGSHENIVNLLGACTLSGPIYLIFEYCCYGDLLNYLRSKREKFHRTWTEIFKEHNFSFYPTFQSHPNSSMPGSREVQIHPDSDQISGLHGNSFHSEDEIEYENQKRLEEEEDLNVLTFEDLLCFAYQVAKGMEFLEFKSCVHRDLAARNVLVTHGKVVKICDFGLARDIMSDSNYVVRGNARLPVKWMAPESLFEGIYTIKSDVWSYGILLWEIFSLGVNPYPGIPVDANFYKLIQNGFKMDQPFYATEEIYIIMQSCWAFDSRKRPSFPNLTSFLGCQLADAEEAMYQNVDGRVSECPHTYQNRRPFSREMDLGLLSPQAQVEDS
# [6] = molecular target: Tyrosine-protein kinase JAK2 (Homo sapiens, UniProt O60674); assay: Inhibition of JAK2
# Tyrosine-protein kinase JAK2, sequence (O60674 whole entry): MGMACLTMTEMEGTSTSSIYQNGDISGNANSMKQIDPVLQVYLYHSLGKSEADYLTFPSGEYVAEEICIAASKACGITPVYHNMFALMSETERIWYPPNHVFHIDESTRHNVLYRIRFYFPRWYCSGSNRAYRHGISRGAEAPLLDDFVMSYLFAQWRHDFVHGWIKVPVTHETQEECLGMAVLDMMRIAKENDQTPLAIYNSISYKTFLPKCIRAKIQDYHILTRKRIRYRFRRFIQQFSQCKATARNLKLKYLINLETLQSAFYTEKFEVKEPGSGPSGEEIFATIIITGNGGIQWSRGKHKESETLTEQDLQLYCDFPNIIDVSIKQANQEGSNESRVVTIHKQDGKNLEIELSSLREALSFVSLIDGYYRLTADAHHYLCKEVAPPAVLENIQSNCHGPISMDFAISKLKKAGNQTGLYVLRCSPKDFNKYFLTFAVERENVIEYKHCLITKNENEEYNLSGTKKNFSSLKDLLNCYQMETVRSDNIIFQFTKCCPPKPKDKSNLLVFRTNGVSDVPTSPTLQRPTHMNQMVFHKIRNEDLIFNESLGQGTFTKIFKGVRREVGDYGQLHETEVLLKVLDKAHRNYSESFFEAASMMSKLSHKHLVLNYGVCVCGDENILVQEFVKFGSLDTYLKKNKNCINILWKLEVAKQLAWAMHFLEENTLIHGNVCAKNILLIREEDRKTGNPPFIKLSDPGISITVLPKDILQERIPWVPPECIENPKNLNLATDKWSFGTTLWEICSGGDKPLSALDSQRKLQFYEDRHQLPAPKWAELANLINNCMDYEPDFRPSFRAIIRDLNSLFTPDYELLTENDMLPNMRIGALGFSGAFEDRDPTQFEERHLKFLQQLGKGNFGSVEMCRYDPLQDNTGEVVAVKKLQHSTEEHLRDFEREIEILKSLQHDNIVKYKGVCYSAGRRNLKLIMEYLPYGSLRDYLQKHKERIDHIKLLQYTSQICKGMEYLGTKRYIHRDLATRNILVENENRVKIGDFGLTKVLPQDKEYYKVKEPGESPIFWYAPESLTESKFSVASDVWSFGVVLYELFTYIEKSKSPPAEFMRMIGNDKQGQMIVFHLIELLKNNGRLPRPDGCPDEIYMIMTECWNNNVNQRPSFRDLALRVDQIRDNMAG
half-life [1],bioavailability [2],IC50 [3],IC50 [4],IC50 [5],IC50 [6],Structure (SMILES)
> 60 min,65%,,,,,COc1ccc(-c2nc(Nc3cccc(NC(=O)N4CCCC4)c3)nc3nc[nH]c23)cc1
,,390 nM,4.1 µM,58 nM,,CN1C/C=C/CCOc2cccc(c2)-c2nc(nc3[nH]cnc23)Nc2cccc(c2)C1
,,1400 nM,0.15 µM,22 nM,180 nM,Cc1cnc2nc1-c1cccc(c1)OCC/C=C/CN(C)Cc1cccc(c1)N2
,,,1.5 µM,,,CC(C)(C(N)=O)C(=O)NCCCNc1nc(Nc2cccc(NC(=O)N3CCCC3)c2)ncc1Br
,,98 nM,> 10 µM,350 nM,330 nM,COc1ccc(-c2nc(Nc3cccc(NC(=O)CN)c3)nc3[nH]cnc23)cc1OC
,,1600 nM,7 µM,7300 nM,830 nM,Oc1ccc(-c2nc(Nc3cccc(Cl)c3)nc3[nH]cnc23)cc1
